Patent US20060264418A1, “6-(2,2,2-Trifluoroethylamino-7-chloro-2,3,4,5-tetrahydro-1h-benzo[d] azephine as a 5-ht2c receptor agonist” (priority 2003, published 2006)

Key:
D2 dopaminergic receptor = D2 dopaminergic receptor (Homo sapiens, UniProt P14416); assay: Radioligand receptor binding assay, D2 dopaminergic
[1] = target: alpha 1 adrenergic receptor; assay: Radioligand receptor binding assay, alpha 1 adrenergic
human 5-HT2B receptor = target: T1, human 5-HT2B receptor (Homo sapiens, UniProt P41595); assay: G alpha q-GTPγ[35S] binding agonist activity assay (ISPA), 5-HT2B; assay type: biochemical
T1 construct: expressed in transfected cells; host or cells: AV12 cells
Procedure: Agonist Activity Assays (G Alpha g-GTPγ[^35S] Binding Assays)
The 5-HT2 receptors are functionally coupled to specific G-proteins. Agonist activation of 5-HT2 G-protein-coupled receptors results in the release of GDP from the α-subunit (G alpha q or G alpha i) of the G-protein and the subsequent binding of GTP. The binding of the stable analog GTPγ[^35S] is an indicator of receptor activation (i.e. agonist activity).
The area under the dose response curve (AUC) is also determined for each receptor subtype and used to measure the test compound's selectivity for the 5-HT2C receptor over the 5-HT2A and 5-HT2B receptors, expressed as Selectivity Ratios (AUC 2C/2A and AUC 2C/2B, respectively). The Selectivity Ratios allow the assessment of selectivity based on both potency and efficacy. A selectivity measure that incorporates both potency and efficacy at the 5-HT2C receptor, as compared to the 5-HT2A and 5-HT2B.receptors, is considered important due to the adverse events associated with 5-HT2A and 5-HT2B agonist activity (see introduction). […]
G alpha q-GTPγ[^35S] […] Quantitate the GTPγ[^35] binding by microtiter plate scintillation spectrometry (Wallac Trilux MicroBeta™ scintillation counter). […]

male Long-Evans rats = assay: Acute feeding assay with a selective 5-HT2C receptor antagonist; assay type: in vivo, rat; conditions: antagonist 3 mg/Kg subcutaneous about 15 min. before oral test compound
Source text: Animals: Obtain male Long-Evans rats (Harlan Sprague-Dawley, Indianapolis, Ind.) that are approximately one hundred-days old and have been maintained on a calorie rich diet since weaning (TD 95217, 40% calories from fat; Teklad, Madison, Wis.). House the rats individually with a 12 hr.:12 hr. light:dark cycle (lights on from about 22:00 hr. to about 10:00 hr.) and maintain rats on the same diet (TD 95217) with free access to water, for about 1-2 weeks to acclimate the rats to the environment. Dose rats orally with vehicle (10% acacia with 0.15% saccharin in water) once daily for at least 1 day (typically 1-2 days) to acclimate the rats to the procedures. Randomize the rats into groups so each group has similar mean body weights.
Acute Feeding Assay with a selective 5-HT2C receptor antagonist: The above calorimetric acute feeding assay is conducted with the following modifications. Open circuit calorimetry systems are not used and only the 24 hr. periodic food intake and body weight are measured. […]

T1 sequence (P41595 whole entry): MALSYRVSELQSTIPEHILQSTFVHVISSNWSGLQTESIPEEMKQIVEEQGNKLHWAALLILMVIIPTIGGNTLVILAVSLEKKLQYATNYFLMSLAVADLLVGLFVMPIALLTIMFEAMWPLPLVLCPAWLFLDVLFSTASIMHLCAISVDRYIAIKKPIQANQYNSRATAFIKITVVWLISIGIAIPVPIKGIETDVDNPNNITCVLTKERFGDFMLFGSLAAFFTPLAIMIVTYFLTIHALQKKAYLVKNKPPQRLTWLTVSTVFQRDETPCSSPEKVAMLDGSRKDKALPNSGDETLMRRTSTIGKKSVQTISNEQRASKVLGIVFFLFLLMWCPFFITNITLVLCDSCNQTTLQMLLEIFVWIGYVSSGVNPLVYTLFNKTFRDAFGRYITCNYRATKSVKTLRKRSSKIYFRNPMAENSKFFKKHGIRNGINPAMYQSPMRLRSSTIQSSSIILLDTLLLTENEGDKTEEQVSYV
D2 dopaminergic receptor, sequence (P14416 whole entry): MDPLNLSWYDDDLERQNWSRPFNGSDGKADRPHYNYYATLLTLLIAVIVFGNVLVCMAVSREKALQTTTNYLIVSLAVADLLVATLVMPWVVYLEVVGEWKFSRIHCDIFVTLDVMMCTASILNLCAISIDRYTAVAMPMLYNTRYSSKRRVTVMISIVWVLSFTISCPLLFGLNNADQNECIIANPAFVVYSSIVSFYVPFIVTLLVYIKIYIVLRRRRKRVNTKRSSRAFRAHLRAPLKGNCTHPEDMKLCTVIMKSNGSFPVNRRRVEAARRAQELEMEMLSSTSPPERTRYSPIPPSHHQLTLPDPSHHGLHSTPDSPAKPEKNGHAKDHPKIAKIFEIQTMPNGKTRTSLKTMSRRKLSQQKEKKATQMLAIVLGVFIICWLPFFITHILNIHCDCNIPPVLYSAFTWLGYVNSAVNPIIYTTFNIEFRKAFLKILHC

## FC(F)(F)CNc1c(Cl)ccc2c1CCNCC2.O=C(O)CCC(=O)O [Example 2, 7-Chloro-6-(2,2,2-trifluoroethylamino)-2,3,4,5-tetrahydro-1H-benzo[d]azepine Succinic Acid Salt]
D2 dopaminergic receptor
  IC50: > 3 µM
[1]
  IC50: > 3 µM
Human 5-HT2B receptor
  Emax: 33.9 ± 1%
Human 5-HT2B receptor; AV12 cell membranes with human 5-HT2B, ± standard error of the mean
  EC50: 0.119 ± 0.034 µM
Male Long-Evans rats
  effect on 24 hr. food intake after pre-administration of the 5-HT2C receptor antagonist: blocked
